This note sets out measurements from paper PMC9814457 (2022).

This test deals with QDJ1 (model quadruplex-duplex junction) (DNA, G4) GGTTGGCGCGAAGCATTCGCGGGTTGG
Kind of test: NMR ligand protection (53-compound library, HSQC difference). The settings on record: 20 mM KCl; 20 mM K2HPO4, pH 7.0; 30 μM DNA.

On to `NCc1cc(CN)cc(CN)c1`, for which the binding entry is recorded as “yes”.
